The text below walks through data of patent US6663865B1, “Tumor necrosis factor antagonists and their use in endometriosis” (Applied Research Systems ARS Holding N.V., priority 1999, dated 2003).

For data set [1], the system named is endometriotic-like foci. The experiment in a line: Experimental model of endometriosis in the rat (size of engraftments). To be noted: for Mean ± SEM Post-treatment values (engraftment surface area): s.c., soluble TNF-RI 10 mg/kg, Antide 2 mg/kg; for Mean ± SEM Pre-treatment values (engraftment surface area): baseline at pre-treatment laparatomy. The format is in vivo. On the procedure: Experimental model of endometriosis in the rat. To explore the effects of the recombinant soluble TNF-RI in endometriosis, a previously described experimental model (Jones, 1987) was used with minor modifications. Under Inoketam/Rompun anaesthesia, an autologous fragment of endometrial tissue (1 cm in length) was resected from the right uterine horn and placed in PBS at 37° C. The uterine segment was opened by a longitudinal incision, and a 5×5 mm section was transplanted, without removing the myometrium, onto the inner surface of the abdominal wall using non-absorbable silk suture at four comers.
Exploration of the study drugs effects in the experimental model of endometriosis. […] One further group of rats, not undergoing any surgical procedure, was kept as a normal control group. Three weeks after the induction of endometriosis, the animals underwent a second laparatomy (pre-treatment laparatomy) to evaluate the size and viability of the ectopic endometrial tissue. The surface area (length×width) was measured using a calliper and recorded. The animals showing viable engraftments were assigned to the designated treatment groups as reported in Table I, so that at the end of the experiment, six animals/group for the first sacrifice time-point and five animals/group for the second sacrifice time-point were obtained. The treatments were started after a 1-week recovery period. The control groups received saline alone; another group received three subcutaneous injections of 2 mg/kg Antide every 3 days with a regimen previously shown to suppress ovarian and hypothalamic activity (Sharpe et al., 1990). A further group received 10 mg/kg recombinant soluble TNF-RI, divided into two daily doses over a 1-week period.
(§1) At the designated sacrifice time-points (2 and 9 days after the last treatment i.e. 36 and 43 days after surgical engraftment), the animals were anaesthetised; blood samples were collected from abdominal aorta, sera were separated and stored at −20° C. until analyzed for estradiol-17β level determination. Spleens were excised for measurement of the Natural Killer (NK) activity. The surface area of endometriosis-like foci were measured at each sacrifice time-point in order to normalize data, the percent variation versus the pre-treatment laparatomy value was calculated by the formula: [formula]
where X0 is the size at time of pre-treatment laparatomy and X is the size at the time of sacrifice. The mean value of percent variation in each group was then computed.

Data set [2] can be described thus: Serum estradiol-17β determination by radioimmunoassay in rats with experimental endometriosis. The format is in vivo, rat. To be noted: second observation time-point (9 days after last treatment). On the procedure:
as §1
Estradiol-17β determination. Serum estradiol-17β concentrations were determined using a commercially available kit to quantify estradiol in serum with no extraction step (DPC, Los Angeles, Calif., USA). Briefly, ^125I-labeled estradiol competes with estradiol in the serum sample for antibody sites. After incubation, separation of bound from free was achieved by decanting. The tube was then counted in a gamma counter (LKB-Pharmacia Wallak), the counts being inversely related to the amount of estradiol present in the serum sample. The quantity of estradiol in the samples was determined by comparing the counts to a calibration curve. […] Samples from the same experimental session were analyzed in a single immunoassay.

Data set [3] deals with endometriosis. To be noted: cited from earlier work.

In the case of Antide, the “size reduction of the endometriotic-like foci compared to the original dimension” value in data set [1] (2 days after last treatment (first sacrifice time-point)) is reported as 94%; in data set [1] (9 days after last treatment (second sacrifice time-point)), 88%. The “Mean ± SEM Post-treatment values (engraftment surface area)” value in data set [1] (2 days after last treatment) amounted to 0.08 ± 0.02 cm^2; in data set [1] (9 days after last treatment), 0.19 ± 0.09 cm^2. Also, the “Mean ± SEM Pre-treatment values (engraftment surface area)” value worked out at 1.43 ± 0.34 cm^2 in data set [1] (group observed 2 days after last treatment) and 1.41 ± 0.32 cm^2 in data set [1] (group observed 9 days after last treatment). For the same compound, the “serum estradiol-17β concentration compared to untreated controls” value in data set [2] is given as “significant difference”.

With `C#C[C@]1(O)CC[C@H]2[C@@H]3CCC4=Cc5oncc5C[C@]4(C)[C@H]3CC[C@@]21C` [Danazol], the crude recurrence rates in data set [3] (after up to 4 years) is recorded as 40%-50%. Besides, the “patients suffering from pain with improved symptoms” value in data set [3] (endometriosis patients) is 66-100%. Moreover, the “patients abandoning therapy because of weight gain and androgenic side effects” value in data set [3] (human, in vivo) is listed as “up to 80%”.
